Reference: PMC5146660, “Functional and structural characterization of a novel putative cysteine protease cell wall-modifying multi-domain enzyme selected from a microbial metagenome” (Scientific Reports, 2016)

Molecular target: T1, PCP (putative cysteine protease)
T1 construct: domains 1-48, 49-185 (CHAP, Cys100/His161), 186-247 (PGBD), 248-319 (SH3); monomer; printed peptide 178PVTDALKR185; primers encode start (M)LGQISTA and end KYARLVE
Experiment: tryptophan fluorescence quenching, double-logarithm regression
Assay type: binding, uncultured bacterium (Capra hircus rumen metagenome)
Details: 50 mM NaH2PO4, 300 mM NaCl, 200 mM imidazole, pH 8.5, 25 °C; protein 5.28 μM; excitation 295 nm; read-out: Kb (converted)

Kd: 5.56 µM
SMILES: CC1(C)S[C@@H]2[C@H](NC(=O)[C@H](N)c3ccccc3)C(=O)N2[C@H]1C(=O)O [ampicillin]
